# Reference: US20240368168A1, “SARM1 ENZYME ACTIVITY INHIBITOR AND APPLICATION THEREOF” (ARTIVILA BIOPHARMA, priority 2021, published 2024)
# Experiments:
# [1] = target: T1, dN-SARM1 protein (Homo sapiens, UniProt Q6SZW1); test: In vitro biochemical assay for inhibiting SARM1 enzymatic activity (% inhibition rate), PC6 fluorescence method; conditions: 20 μM compound; 50 μM NAD, 50 μM PC6, 50 μM NMN activator
# T1 construct: the N-terminal mitochondrial localization signal peptide of SARM1 was removed
# T1 sequence (Q6SZW1 28-724): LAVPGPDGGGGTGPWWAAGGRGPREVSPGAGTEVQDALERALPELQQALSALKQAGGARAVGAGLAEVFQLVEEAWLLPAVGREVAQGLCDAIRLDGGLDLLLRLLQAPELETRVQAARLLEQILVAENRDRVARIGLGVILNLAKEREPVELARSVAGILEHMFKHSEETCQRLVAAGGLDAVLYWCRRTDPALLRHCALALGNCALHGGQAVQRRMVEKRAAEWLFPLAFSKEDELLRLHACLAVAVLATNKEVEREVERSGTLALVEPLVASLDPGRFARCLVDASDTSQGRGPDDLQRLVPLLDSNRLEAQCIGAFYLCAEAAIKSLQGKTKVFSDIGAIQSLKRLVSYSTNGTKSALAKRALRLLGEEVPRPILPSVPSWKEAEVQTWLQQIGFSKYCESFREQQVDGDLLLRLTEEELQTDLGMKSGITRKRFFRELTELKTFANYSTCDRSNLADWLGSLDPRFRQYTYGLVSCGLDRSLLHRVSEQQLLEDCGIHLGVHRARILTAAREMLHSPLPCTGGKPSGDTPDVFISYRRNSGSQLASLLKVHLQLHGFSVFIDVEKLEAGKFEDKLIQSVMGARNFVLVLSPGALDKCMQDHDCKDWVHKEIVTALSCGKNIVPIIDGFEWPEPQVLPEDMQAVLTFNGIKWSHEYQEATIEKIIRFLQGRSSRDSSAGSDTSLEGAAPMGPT
# Experimental: The compounds were subjected to PC6 fluorescence method measurement [Chinese Patent 202010528147.3] using the dN-SARM1 protein obtained through “(4) Protein extraction” in “Expression and purification of SARM1 protein” in the above biological activity example 1.
# First, 0.05 μg/ml dN-SARM1 and 20 μM compound were incubated in 50 mM Tris-HCl (pH 7.5) solution for 10 min, and then added with 50 μM NAD and 50 μM PC6 as substrate and 50 μM NMN as activator for 30 minutes of reaction at room temperature. The concentration of each component was the final concentration in the reaction system.
# During the reaction, PC6 fluorescence spectrum dynamics were detected by a microplate reader, wherein the excitation wavelength and emission wavelength for detection were 390 nm and 520 nm, respectively. Finally, the reaction rate was used to express the activity of the protein. The higher the reaction rate, the stronger the activity of the protein and the lower the inhibitory efficiency of the compound.
# [2] = target: T1, dN-SARM1 protein; test: In vitro biochemical assay for inhibiting SARM1 enzymatic activity (IC50), PC6 fluorescence method; conditions: 50 μM NAD, 50 μM PC6, 50 μM NMN activator
# Method in brief: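 dN-SARM1 (0.05 μg/ml, 50 mM Tris-HCl pH 7.5) preincubated 10 min at room temperature with compound in serial dilution from 200 μM. Reaction started with final 50 μM NAD, 50 μM PC6 substrate and 50 μM NMN activator, 30 min at room temperature. PC6 fluorescence (ex 390/em 520 nm) rate gives activity; IC50 derived.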
# [3] = target: T2, SARM1 protein in iSARM1 (HEK293) cells (Homo sapiens, UniProt Q6SZW1); test: Inhibitory activity in inducible SARM1 overexpressing cell line, intracellular cADPR level; type: cell-based; conditions: activator CZ-48 100 μM, cADPR content
# T2 construct: The full-length SARM1 was synthesized into the pUC57 plasmid by WZ Biosciences Inc., and PCR was performed using pUC57-SARM1 as a DNA template
# T2 sequence (Q6SZW1 28-724): T1 sequence (Q6SZW1 28-724)
# Method in brief: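 Inducible SARM1-overexpressing HEK293 cells preincubated 1.5 h with inhibitor (50 μM final), then activated with 100 μM CZ-48 for 16 h. Intracellular cADPR extracted with perchloric acid, NAD+ removed by NADase, and quantified by cyclase-coupled resazurin cycling assay (Ex/Em 544/599, 30 min kinetics) against cADPR standards; inhibition rate and IC50 calculated.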
Structure (SMILES),inhibition at 20 µM [1] [%],IC50 [2] [nM],EC50 [3] [nM]
"CCOC(=O)c1ccc(-c2cnc3ccc(NC(=O)OC(C)(C)C)cn23)s1 [Compound 126, ethyl 5-(6-((tert-butoxycarbonyl)amino)imidazo[1,2-a]pyridin-3-yl)thiophen-2-carboxylate]",> 90,,
CN1CCC(C(=O)Nc2cccc(-c3cnc4ccc(N(C)C(=O)OC(C)(C)C)cn34)c2)CC1 [Compound 48],50 to 89,,
CC(C)(C)Oc1ccc2ncc(-c3cccc(NC(=O)C4CCOCC4)c3)n2c1 [Compound 55],> 90,1000 to 10000,
CNc1ccc2ncc(-c3cccc(C(=O)NC4CCOCC4)c3)n2c1 [Compound 136],> 90,< 1000,
COCCOCC(=O)Nc1cccc(-c2cnc3ccc(NC(=O)COC)cn23)c1 [Compound 131],> 90,1000 to 10000,
"COC(=O)c1csc(-c2cnc3ccc(NC(=O)OC(C)(C)C)cn23)c1 [Compound 124, methyl 5-(6-((tert-butoxycarbonyl)amino)imidazo[1,2-a]pyridin-3-yl)thiophene-3-carboxylate]",> 90,1000 to 10000,
"COCCOCCNS(=O)(=O)c1cccc(-c2cnc3ccc(N(C)C(=O)OC(C)(C)C)cn23)c1 [Compound 108, tert-butyl (3-(3-(N-(2-(2-methoxyethoxy)ethyl)sulfamoyl)phenyl)imidazo[1,2-a]pyridin-6-yl)(methyl)carbamate]",50 to 89,1000 to 10000,
"CC(C)(C)OC(=O)Nc1ccc2ncc(-c3cc(C(=O)NC4CCOCC4)cs3)n2c1 [Compound 125, tert-butyl (3-(4-((tetrahydro-2H-pyran-4-yl)carbamoyl)thiophen-2-yl)imidazo[1,2-a]pyridin-6-yl) carbamate]",> 90,1000 to 10000,
"CNc1ccc2ncc(Br)n2n1 [Compound 1, 3-bromo-N-methylimidazo[1,2-b]pyridazin-6-amine]",> 90,,
O=C(Nc1cccc(-c2cnc3ccc(N4CCOCC4)cn23)c1)C1CCOCC1 [Compound 57],> 90,< 1000,
CN(C(=O)OC(C)(C)C)c1ccc2ncc(-c3cccc(NC(=O)NC[C@@H]4CCO4)c3)n2c1 [Compound 152],> 90,1000 to 10000,
Ic1cccc2ncc(I)n12 [Compound 28],50 to 89,,
CN(C(=O)OC(C)(C)C)c1ccc2ncc(-c3cccc(NC(=O)CN4CCOCC4)c3)n2c1 [Compound 147],> 90,,
"CN(C(=O)OC(C)(C)C)c1ccc2ncc(-c3cccc(C(=O)O)c3)n2c1 [Compound 132, 3-(6-((tert-butoxycarbonyl)(methyl)amino)imidazo[1,2-a]pyridin-3-yl)benzoic acid]",> 90,1000 to 10000,
"CC(C)(C)OC(=O)Nc1ccc2ncc(-c3ccc(C(=O)NC4CCOCC4)s3)n2c1 [Compound 127, tert-butyl (3-(5-((tetrahydro-2H-pyran-4-yl)carbamoyl)thiophen-2-yl)imidazo[1,2-a]pyridin-6-yl)carbamate]",50 to 89,,
"CN(C(=O)C(F)(F)F)c1ccc2ncc(NC(=O)COCCOCCOCC(=O)Nc3cnc4ccc(N(C)C(=O)C(F)(F)F)cn34)n2c1 [Compound 142, N,N′-(3,3′-((2,2′-((oxybis(ethane-2,1-diyl))bis(oxy))bis (acetyl))bis(azadialkyl))bis(imidazo[1,2-a]pyridin-6,3-diyl))bis(2,2,2-trifluoro-N-methylacetamide)]",> 90,,
Nc1cn2c(-c3ccccc3)cnc2cc1Cl [Compound 19],> 90,,
"COCCOCCNC(=O)c1cccc(-c2cnc3ccc(N(C)C(=O)OC(C)(C)C)cn23)c1 [Compound 133, tert-butyl (3-(3-((2-(2-methoxyethoxy)ethyl)carbamoyl)phenyl)imidazo[1,2-a]pyridin-6-yl)(methyl)carbamate]",50 to 89,,
"CN(C(=O)OC(C)(C)C)c1ccc2ncc(-c3ccccc3)n2n1 [Compound 95, tert-butyl methyl(3-phenylimidazo[1,2-b]pyridazin-6-yl) carbamate]",50 to 89,,
CN1CCN(c2ccc3nccn3c2)CC1 [Compound 35],50 to 89,,

Structure (SMILES),inhibition at 20 µM [1] [%],IC50 [2] [nM],EC50 [3] [nM]
CC(C)(C)OC(=O)Nc1ccc2ncc(-c3ccccc3)n2n1 [Compound 22],50 to 89,,
"CNc1ccc2ncc(-c3cccc(S(=O)(=O)NCCOCCOC)c3)n2c1 [Compound 109, N-(2-(2-methoxyethoxy)ethyl)-3-(6-(methylamino)imidazo[1,2-a]pyridin-3-yl)benzenesulfonamide]",50 to 89,,
CN(C(=O)OC(C)(C)C)c1ccc2ncc(-c3cccc(C(=O)NC4CCOCC4)c3)n2c1 [Compound 135],50 to 89,,
"CN(C(=O)OC(C)(C)C)c1ccc2ncc(-c3cccc(N(C)C(=O)C4CCOCC4)c3)n2c1 [Compound 158, tert-butyl methyl (3-(3-(N-methyltetrahydro-2H-pyran-4-carboxamido)phenyl)imidazo[1,2-a]pyridin-6-yl)carbamate]",,1000 to 10000,< 1000
CNc1ccc2ncc(-c3cccc(NC(=O)COCCOCc4ccccc4)c3)n2c1 [Compound 241],,< 1000,< 1000
CN(C(=O)OC(C)(C)C)c1ccc2ncc(-c3cccc(NC(=O)[C@@H]4CCOC4)c3)n2c1 [Compound 238],,< 1000,< 1000
CN(C(=O)OC(C)(C)C)c1ccc2ncc(-c3cccc4cn[nH]c34)n2c1 [Compound 259],,< 1000,1000 to 10000
CNc1ccc2ncc(-c3nn4ccnc4s3)n2c1 [Compound 185],,1000 to 10000,1000 to 10000
"CNc1ccc2ncc(-c3cc4cc[nH]c4cn3)n2c1 [Compound 162, N-methyl-3-(1H-pyrrolo[2,3-c]pyridin-5-yl)imidazo[1,2-a]pyridin-6-amine]",,< 1000,< 1000
CN(C(=O)OC(C)(C)C)c1ccc2ncc(-c3cccc(NC(=O)COCc4ccccc4)c3)n2c1 [Compound 248],,1000 to 10000,< 1000
CNc1ccc2ncc(-c3cccc(N(C)C(=O)C4CCOCC4)c3)n2c1 [Compound 159],,< 1000,1000 to 10000
CN(C(=O)OC(C)(C)C)c1ccc2ncc(-c3cccc(NC(=O)CN4CCC(O)C4)c3)n2c1 (centres unmarked) [Compound 148],> 90,,
CN(C(=O)OC(C)(C)C)c1ccc2ncc(-c3cccc(NC(=O)c4ccccc4)c3)n2c1 [Compound 249],,1000 to 10000,< 1000
CNc1ccc2ncc(-c3cccc(NC(=O)C4CCOCC4)n3)n2c1 [Compound 171],,< 1000,< 1000
CC(C)(C)OC(=O)Nc1ccc2ncc(C(=O)NCCOCCOCCNC(=O)c3cnc4ccc(NC(=O)OC(C)(C)C)cn34)n2c1 [Compound 139],50 to 89,,
CNc1ccc2ncc(-c3cccs3)n2c1 [Compound 69],,1000 to 10000,1000 to 10000
"Ic1cnc2ccc(-n3cccn3)cn12 [Compound 201, 3-iodo-6-(1H-pyrazol-1-yl)imidazo[1,2-a]pyridine]",,1000 to 10000,< 1000
O=C1CCCN1c1ccc2ncc(-c3cccc4[nH]ccc34)n2c1 [Compound 205],,1000 to 10000,< 1000
CNc1ccc2ncc(-c3cccc(CN)c3)n2c1 [Compound 274],,1000 to 10000,1000 to 10000
